Patent US12122761B2, “2-azaspiro[3.4]octane derivatives as M4 agonists” (NOVARTIS AG, priority 2019, dated 2024)
Read-outs that look alike come from different tables or passages of the source.

Biological target: T1, human cloned CHRM2 receptor (M2_CHO cells) (Homo sapiens, UniProt P08172)
T1 construct: expressed in transfected cells; host or cells: CHO-K1
T1 sequence (P08172 1-466): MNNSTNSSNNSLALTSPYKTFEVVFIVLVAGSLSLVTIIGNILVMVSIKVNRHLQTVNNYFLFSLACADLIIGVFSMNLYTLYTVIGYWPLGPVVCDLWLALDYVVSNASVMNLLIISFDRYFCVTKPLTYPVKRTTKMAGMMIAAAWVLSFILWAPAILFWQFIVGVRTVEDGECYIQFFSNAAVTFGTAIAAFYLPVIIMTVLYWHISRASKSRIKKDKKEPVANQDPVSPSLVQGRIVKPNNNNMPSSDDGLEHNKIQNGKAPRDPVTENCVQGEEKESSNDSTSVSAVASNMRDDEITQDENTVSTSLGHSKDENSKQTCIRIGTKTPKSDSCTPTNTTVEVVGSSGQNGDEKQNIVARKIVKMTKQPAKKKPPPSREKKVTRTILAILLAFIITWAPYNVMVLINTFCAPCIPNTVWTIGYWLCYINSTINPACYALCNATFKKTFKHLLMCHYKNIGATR
Assay: CHRM2 Ca++ Flux Assay (agonist mode, FDSS 7000EX)
Type: cell-based
Conditions: for M2 FDSS PA: Percent Activity measured to EC100 of Carbachol; for EC50: agonist mode, geometric mean if tested more than once, read-out: M2 FDSS EC50
Protocol: The above examples were characterized by measuring the intracellular mobilization of Ca++ ions caused by signaling events mediated by the receptor. The Intra-cellular Calcium flux levels were captured by the highly sensitive Ca++ indicator, Calcium Assay Kit (BD Biosciences, Catalog Number 640178). The fluorescent activity from all receptors were monitored by the fluorescent imager, FDSS 7000EX (Hamamatsu) over a span of 3 minutes.
CHO-K1 cells stably expressing the human cloned CHRM2 receptor (M2_CHO cells) were grown and maintained in a monolayer culture with F12/HAM (Life Technologies) supplemented with 10% Fetal Bovine Serum, 1× Pen-Strep, and 0.4 mg/mL Geneticin in a humidified atmosphere (5% CO2) at 37° C. The cultures were grown to 80-9 0% confluency in T150 flasks (Corning) and washed with 1×DPBS and lifted with 0.05% Trypsin (Life Technologies). The cells were then spun (1K rpm, 3 minutes) and frozen using Recovery Cell Culture Freezing Media (Gibco Technologies). Cells were stored in liquid nitrogen and thawed a day before the assay.
Prior to the day of the assay, stable M2 CHO cells were thawed and plated on Greiner 384 well TC treated plate at a density of 12K cells/well and kept overnight in a humidified atmosphere (5% CO2) at 37° C. The following day, the cells were loaded with Ca^++ dye (BD Biosciences) using Loading Buffer (HBSS +Ca/+Mg, 20 mM HEPES, 2.5 mM Probenecid) and placed back in cell incubator for a minimum of 1 hour and maximum of 2 hours. After incubation, the dye was replaced with Assay Buffer (HBSS −Ca/−Mg, 20 mM HEPES, 2.5 mM Probenecid) supplemented with 20 μM ATP (Sigma Aldrich) and kept at room temperature for 60 minutes prior before running on cell imager. The FDSS 7000EX (Hamamatsu) was used to acquire Ca^++ traces from cells in response to compound treatment and the data was used to generate dose response curves in agonist mode. All compounds were serially diluted in DMSO then prepared in Assay Buffer for Ca^++ flux studies. The dose response curves were generated from the average of triplicate wells obtained from each data point and used a non-linear regression of four parameter dose response algorithm. The Percent Activity (PA) was measured to EC100 of Carbachol.

SMILES	M2 FDSS PA [%]	also measured
Cc1ncc(COc2ccccc2C2CCN([C@@H]3CCC4(C3)CN(C(=O)C3(F)CC3)C4)CC2)o1 (single isomer, unassigned) [Example 7V, (R)-(1-fluorocyclopropyl)(6-(4-(2-((2-methyloxazol-5-yl)methoxy)phenyl)piperidin-1-yl)-2-azaspiro[3.4]octan-2-yl)methanone or (S)-(1-fluorocyclopropyl)(6-(4-(2-((2-methyloxazol-5-yl)methoxy)phenyl)piperidin-1-yl)-2-azaspiro[3.4]octan-2-yl)methanone]	0	
Cc1nnc(COc2ccccc2C2CCN([C@@H]3CCC4(C3)CN(C(=O)C3(F)CC3)C4)CC2)o1 (single isomer, unassigned) [Example 7W, (R)-(1-fluorocyclopropyl)(6-(4-(2-((5-methyl-1,3,4-oxadiazol-2-yl)methoxy)phenyl)piperidin-1-yl)-2-azaspiro[3.4]octan-2-yl)methanone or (S)-(1-fluorocyclopropyl)(6-(4-(2-((5-methyl-1,3,4-oxadiazol-2-yl)methoxy)phenyl)piperidin-1-yl)-2-azaspiro[3.4]octan-2-yl)methanone]	0	
Cc1nc(COc2ccccc2C2CCN([C@@H]3CCC4(C3)CN(C(=O)C3(F)CC3)C4)CC2)no1 (single isomer, unassigned) [Example 7X, (R)-(1-fluorocyclopropyl)(6-(4-(2-((5-methyl-1,2,4-oxadiazol-3-yl)methoxy)phenyl)piperidin-1-yl)-2-azaspiro[3.4]octan-2-yl)methanone or (S)-(1-fluorocyclopropyl)(6-(4-(2-((5-methyl-1,2,4-oxadiazol-3-yl)methoxy)phenyl)piperidin-1-yl)-2-azaspiro[3.4]octan-2-yl)methanone]	0	
Cc1nnc(COc2ccccc2C2CCN([C@@H]3CCC4(C3)CN(C(=O)C3(F)CC3)C4)CC2)o1 (single isomer, unassigned) [Example 7Y, (R)-(1-fluorocyclopropyl)(6-(4-(2-((5-methyl-1,3,4-oxadiazol-2-yl)methoxy)phenyl)piperidin-1-yl)-2-azaspiro[3.4]octan-2-yl)methanone or (S)-(1-fluorocyclopropyl)(6-(4-(2-((5-methyl-1,3,4-oxadiazol-2-yl)methoxy)phenyl)piperidin-1-yl)-2-azaspiro[3.4]octan-2-yl)methanone]	0	
Cc1nc(COc2ccccc2C2CCN([C@@H]3CCC4(C3)CN(C(=O)C3(F)CC3)C4)CC2)no1 (single isomer, unassigned) [Example 7Z, (R)-(1-fluorocyclopropyl)(6-(4-(2-((5-methyl-1,2,4-oxadiazol-3-yl)methoxy)phenyl)piperidin-1-yl)-2-azaspiro[3.4]octan-2-yl)methanone or (S)-(1-fluorocyclopropyl)(6-(4-(2-((5-methyl-1,2,4-oxadiazol-3-yl)methoxy)phenyl)piperidin-1-yl)-2-azaspiro[3.4]octan-2-yl)methanone]	0	
COc1ccc(Cl)cc1C1CCN([C@H]2CCC3(C2)CN(C(=O)C2(F)CC2)C3)CC1 (single isomer, unassigned) [Example 8A, (S)-(6-(4-(5-chloro-2-methoxyphenyl)piperidin-1-yl)-2-azaspiro[3.4]octan-2-yl)(1-fluorocyclopropyl)methanone or (R)-(6-(4-(5-chloro-2-methoxyphenyl)piperidin-1-yl)-2-azaspiro[3.4]octan-2-yl)(1-fluorocyclopropyl)methanone]	0	
COc1ccc(Cl)cc1C1CCN([C@H]2CCC3(C2)CN(C(=O)C2(F)CC2)C3)CC1 (single isomer, unassigned) [Example 8B, (S)-(6-(4-(5-chloro-2-methoxyphenyl)piperidin-1-yl)-2-azaspiro[3.4]octan-2-yl)(1-fluorocyclopropyl)methanone or (R)-(6-(4-(5-chloro-2-methoxyphenyl)piperidin-1-yl)-2-azaspiro[3.4]octan-2-yl)(1-fluorocyclopropyl)methanone]	0	
O=C(C1COC1)N1CC2(CC[C@H](N3CCC(c4ccccc4OC(F)F)CC3)C2)C1.O=C(O)CC(O)(CC(=O)O)C(=O)O (single isomer, unassigned) [Example 8E, (S)-(6-(4-(2-(difluoromethoxy)phenyl)piperidin-1-yl)-2-azaspiro[3.4]octan-2-yl)(oxetan-3-yl)methanone or (R)-(6-(4-(2-(difluoromethoxy)phenyl)piperidin-1-yl)-2-azaspiro[3.4]octan-2-yl)(oxetan-3-yl)methanone citrate salt]		M2 FDSS PA (citrate salt): 26%; EC50 (citrate salt): 0.096 µM
O=C(C1COC1)N1CC2(CC[C@H](N3CCC(c4ccccc4OC(F)F)CC3)C2)C1.O=C(O)CC(O)(CC(=O)O)C(=O)O (single isomer, unassigned) [Example 8F, (S)-(6-(4-(2-(difluoromethoxy)phenyl)piperidin-1-yl)-2-azaspiro[3.4]octan-2-yl)(oxetan-3-yl)methanone or (R)-(6-(4-(2-(difluoromethoxy)phenyl)piperidin-1-yl)-2-azaspiro[3.4]octan-2-yl)(oxetan-3-yl)methanone citrate salt]		M2 FDSS PA (citrate salt): 0%
O=C(N1CC2(CC[C@@H](N3CCC(c4ccccc4OC(F)(F)F)CC3)C2)C1)C1(F)CC1 (single isomer, unassigned) [Example 9A, (R)-(1-fluorocyclopropyl)(6-(4-(2-(trifluoromethoxy)phenyl)piperidin-1-yl)-2-azaspiro[3.4]octan-2-yl)methanone or (S)-(1-fluorocyclopropyl)(6-(4-(2-(trifluoromethoxy)phenyl)piperidin-1-yl)-2-azaspiro[3.4]octan-2-yl)methanone]	31	EC50: 11.8 µM
O=C(N1CC2(CC[C@@H](N3CCC(c4ccccc4OC(F)(F)F)CC3)C2)C1)C1(F)CC1 (single isomer, unassigned) [Example 9B, (R)-(1-fluorocyclopropyl)(6-(4-(2-(trifluoromethoxy)phenyl)piperidin-1-yl)-2-azaspiro[3.4]octan-2-yl)methanone or (S)-(1-fluorocyclopropyl)(6-(4-(2-(trifluoromethoxy)phenyl)piperidin-1-yl)-2-azaspiro[3.4]octan-2-yl)methanone]	0	
O=C(N1CC2(CC[C@@H](N3CCC(c4cc(F)ccc4OC4CCOCC4)CC3)C2)C1)C1(F)CC1 (single isomer, unassigned) [Example 9C, (R)-(6-(4-(5-fluoro-2-((tetrahydro-2H-pyran-4-yl)oxy)phenyl)piperidin-1-yl)-2-azaspiro[3.4]octan-2-yl)(1-fluorocyclopropyl)methanone or (S)-(6-(4-(5-fluoro-2-((tetrahydro-2H-pyran-4-yl)oxy)phenyl)piperidin-1-yl)-2-azaspiro[3.4]octan-2-yl)(1-fluorocyclopropyl)methanone]	0	
O=C(N1CC2(CC[C@@H](N3CCC(c4cc(F)ccc4OC4CCOCC4)CC3)C2)C1)C1(F)CC1 (single isomer, unassigned) [Example 9D, (R)-(6-(4-(5-fluoro-2-((tetrahydro-2H-pyran-4-yl)oxy)phenyl)piperidin-1-yl)-2-azaspiro[3.4]octan-2-yl)(1-fluorocyclopropyl)methanone or (S)-(6-(4-(5-fluoro-2-((tetrahydro-2H-pyran-4-yl)oxy)phenyl)piperidin-1-yl)-2-azaspiro[3.4]octan-2-yl)(1-fluorocyclopropyl)methanone]	0	EC50: < 26 µM
